{"source": "paper PMC6003104", "about": "“Discovery of a Short‐Chain Dehydrogenase from Catharanthus roseus that Produces a New Monoterpene Indole Alkaloid” (Chembiochem, 2018)", "target": "T1, vitrosamine synthase (VAS, Cro013448) (Catharanthus roseus, UniProt A0A0C5DR25)", "T1 construct": "N-terminal His6 tag (pOPINF) kept; E. coli SoluBL21; calculated 34469 Da; monomer in solution, dimer in crystal; modelled residues 7-299", "T1 sequence (A0A0C5DR25 entry or part of it)": "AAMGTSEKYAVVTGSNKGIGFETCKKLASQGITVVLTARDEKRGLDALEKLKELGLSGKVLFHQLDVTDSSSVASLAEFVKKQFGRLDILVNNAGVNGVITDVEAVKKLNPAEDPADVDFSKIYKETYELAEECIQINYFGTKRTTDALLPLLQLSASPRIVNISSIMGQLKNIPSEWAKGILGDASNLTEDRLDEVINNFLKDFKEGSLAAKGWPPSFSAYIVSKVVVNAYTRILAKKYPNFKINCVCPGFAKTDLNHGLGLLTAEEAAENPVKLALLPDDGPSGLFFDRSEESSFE", "assay": "X-ray crystal structure, […] Å", "format": "binding", "conditions": "co-purified from E. coli as holoenzyme; crystals pH 4.0, 20 °C; active site, next to Ser167/Tyr223/Lys227", "data": [{"smiles": "NC(=O)c1ccc[n+]([C@@H]2O[C@H](COP(=O)(O)OP(=O)(O)OC[C@H]3O[C@@H](n4cnc5c(N)ncnc54)[C@H](OP(=O)(O)O)[C@@H]3O)[C@@H](O)[C@H]2O)c1", "note": "[NADP+]", "values": [{"measurement": "X-ray crystal structure, 1.55 Å", "value": "the apo enzyme active site also had a high occupancy of NADP^+"}]}]}
